Measured values as given in patent publication US5866511A, “Stabilized solutions of bromonitromethane and their use as biocides” (Great Lakes Chemical Corporation, priority 1997, dated 1999).
Converted amounts (≈) assume the structure as drawn. Where two headings read alike, the source gives them in different places.

What was measured:
Pseudomonas aeruginosa [1] = test: Inhibition of microbial growth in alkaline paper pulp (MIC, at least 90% decrease); format: cell-based, Pseudomonas aeruginosa (ATCC 27853); conditions: read-out: Minimum Inhibitory Concentration
Method: Microbial growth at various points in a paper making system could produce a slime layer which could drop onto the paper sheet causing product damage and machine downtime due to breaks. Biocides are added to keep the microbial growth in check throughout the system. A pulp slurry (1.25% dry basis) was prepared in sodium phosphate buffer (200 mM, pH 8). The slurry is sterilized by autoclaving at 121° C. for 20 min. Pseudomonas aeruginosa (ATCC 27853) is added to the sterile pulp slurries to achieve a final concentration of 10^6 cells/ml. This population is confirmed by serially diluting a sample in sterile phosphate buffer (0.3 mM) and plating onto tryptone glucose extract agar (TGEA; Difco, Detroit, Mich.). Bromonitromethane is added at various concentrations to the test cultures. Controls are established by omitting BNM from the test samples. Following a 3 and 24 hr. exposure period at ambient temperature, the resulting test suspensions are diluted and plated as previously described. All plates are enumerated following an incubation period of 24 hr. at 37° C. The minimum inhibitory concentration is defined as the lowest concentration which decreased the microbial population by at least 90% over the period tested.

Aspergillus niger = test: Inhibition of fungal growth in synthetic cooling water (MIC); format: cell-based, Aspergillus niger (ATCC 9642); conditions: for MIC: 168 h, read-out: Minimum Inhibitory Concentration
Method: Industrial water presents a favorable environment for fungal growth. Fungi can cause many problems in industrial systems including damage to cooling tower wood fill and decks by delignification. Synthetic water is prepared according to the following formula: 0.2 mM MgSO4, 1.2 mM CaCl2 and 1.0 mM NaHCO3. Cooling water presents a favorable environment for microbiological growth. Fungi can damage the cooling tower wood fill and decks by delignification. Synthetic cooling water (CW) is prepared according to the following formula: 0.2 mM MgSO4, 1.2 mM CaCl2, and 1.0 mM NaHCO. The pH is adjusted to either 6 or 8 with either H2 SO4 or NaOH. The resulting solution is then sterilized by passing through a 0.2 μm filter. Various concentrations of acidified BNM solution (pH ranging from 1.5 to 4.0) are added to aliquots of sterile synthetic water. A positive control is prepared by omitting the BNM.
Three day old cultures of Aspergillus niger (ATCC 9642) are harvested from the surface of potato dextrose agar (Difco, Detroit, Mich.) supplemented with tartaric acid. The samples are dosed with A. niger to achieve a concentration of 10^3 CFU/ml. These samples are incubated for one week at ambient temperature. The cultures are plated onto PDA in order to recover any surviving mold. These plates are incubated for three days at ambient temperature. […] The minimum inhibitory concentration (MIC), defined as the lowest concentration of BNM which prevented fungal growth on the PDA plates, is determined.

[2] = CO2 off-gassing during storage of solutions; format: physicochemical; conditions: stabilized (acidified) solutions, storage under standard conditions
Method: (§1) BNM (4.58 g, 91.4% assay) was dissolved in 100 mL of deionized water sample 1. A pH 2.37 solution was prepared by adding one drop of sulfuric acid to 100 mL DI water and then adding 4.60 g of the BNM sample 2. A pH 3.76 solution was prepared by adding one drop of 10% aq sodium hydrogen sulfate to 100 mL DI water and then adding 4.60 g of the BNM sample 3. A pH 7.91 solution was prepared by dissolving 4.60 g of the BNM in 100 mL of DI water. A total of 7.2 g of 16.4% NaOH was then added over six minutes to maintain the pH. That solution turned red, indicating the presence of the bromonitromethylate anion and was slowly becoming acidic before the initial bromide value was determined.
The solutions of the present invention provide the additional benefit of minimizing off-gassing of CO2 during storage of the solution.

[3] = test system: Desulfovibrio desulfuricans; test: Inhibition of sulfate reducing bacterium in API broth (MIC); format: cell-based; conditions: for MIC: read-out: Minimum Inhibitory Concentration
Method: API broth (Difco, Detroit, Mich.) is inoculated with the sulfate reducing bacterium (SRB) Desulfovibrio desulfuricans (10^4 cells/ml). Stable, acidified solutions of bromonitromethane (pH ranging from 1.5 to 3.6) are added to provide bromonitromethane at various concentrations to the SRB cultures. A positive control is constructed in the same fashion […] BNM addition.
The cultures are housed in a GasPak® jar (Becton Dickinson Microbiology Systems, Cockeysville, Md.) under anaerobic conditions (4-10% CO2, <1% O2) at ambient temperature. Cultures are checked weekly for a period of three weeks for visible […] growth indicative of SRB's. […] The minimum inhibitory concentration (MIC), defined as the lowest concentration of BNM which prevented bacterial growth in the API broth tubes, is determined.

[4] = Storage stability of aqueous BNM concentrates (bromide ion concentration by ion selective electrodes over 57 days; gas chromatography); format: physicochemical
Method: Determination of enhanced formulation stability for solutions of bromonitromethane.
A study was performed to determine if aqueous concentrates of BNM could be prepared with adequate storage stability to make the material useful as a biocide. […] Less acidified solutions had faster degradation rates.
as §1
Each solution was measured for bromide ion concentration using ion selective electrodes over the course of 57 days to determine the degree of hydrolysis.
An acidified solution of bromonitromethane (BNM) is prepared by adding one drop of sulfuric acid to 100 ml distilled water and then adding 4.60 g of BNM (91.4% assay). The solution is sampled for gas chromatography assay at the beginning and end of these studies to confirm the BNM concentration. Aqueous solutions of BNM were stable when acidified with mineral acids to acidic pHs. The material hydrolyzed at a very slow rate giving a half-life of over ten years.
In a similar manner, acidified bromonitromethane solutions having pHs of about 1.0, 1.5, 2.0, 2.5, 3.0, 3.5 and 4.0 are prepared.

Chlorella = test: Inhibition of algal growth in Allens medium (MIC), Chlorella; format: cell-based
Method: (§2) Pure cultures of the algal genera Anabeana, Chlamydomonas, and Chlorella are used to inoculate Allens medium at pH 7.5 achieving a final concentration of 10^4 cells/ml. All tests are performed on pure cultures. Various concentrations of acidified BNM solution (for each pH across the pH range of 1.5 to 3.5) are added to the culture tubes. Positive controls are established by the omission of BNM.
(§3) The algal cultures are housed in a light box (400 ft. candles; light source--cool white fluorescent tubes; 16 h on/8 h off cycles; 22°-26° C.) for three weeks. The cultures are read weekly noting any turbidity and green coloration of the medium which would indicate a positive result. […] The minimum inhibitory concentration was determined, with representative results being shown below.

Chlamydomonas = test: Inhibition of algal growth in Allens medium (MIC), Chlamydomonas; format: cell-based
Method: as §2, §3

Pseudomonas aeruginosa [5] = test: Inhibition of aerobic bacteria in borate buffer (MIC, at least 90% decrease); format: cell-based, Pseudomonas aeruginosa (ATCC 278853)
Method: Borate buffer (25 mM) is adjusted to either pH 7 or 8. The buffer was sterilized by passing through a 0.2 μm filter. Pseudomonas aeruginosa (ATCC 278853) is added to aliquots of the sterile buffer to achieve a final concentration of 10^6 cells/ml. This population is confirmed by serially diluting a sample in sterile phosphate buffer (0.3 mM) and plating onto tryptone glucose extract agar (TGEA; Difco, Detroit, Mich.). Acidified solutions of bromonitromethane are added at various concentrations to the test cultures. Solutions acidified with acids to pHs of between 1.5 and 3.5 are prepared and tested. Positive controls are established by omitting BNM from the test samples.
Following 3 and 24 hour exposure periods at ambient temperature, the resulting test suspensions are diluted and plated as previously described. All plates are enumerated following an incubation period of 24 hr. at 37° C. The minimum inhibitory concentration is defined as the lowest concentration which decreased the microbial population by at least 90% over the period tested.

Anabeana = test: Inhibition of algal growth in Allens medium (MIC), Anabeana; format: cell-based
Method: as §2, §3

all the organisms = conditions: quoted from Clark et al.; attributed to volatility; cited from earlier work
Pseudomonas aeruginosa [6] = test: Inhibition of bacterial growth in contaminated paint (MIC); format: cell-based; conditions: for MIC: paint, 25° C., read-out: Minimum Inhibitory Concentration
Method: Water based paints are subject to microbial attack which could produce viscosity loss or offensive odors. Biocides are added to protect the paint from such degradation in the can. A paint sample was artificially contaminated with Pseudomonas aeruginosa, a bacterium which is frequently found in spoiled paint. […] The thermal treatment inactivates residual biocide present in the paint.
Acidified solutions of BNM (pH ranging from 1.5 to 3.5) are diluted with sterile water and added at various concentrations to the paint. Positive controls are established by the omission of BNM addition.
A sterile swab was dipped into the paint and samples are plated onto tryptone glucose extract agar (TGEA; Difco, Detroit, Mich.). Samples of contaminated paint are subsequently swabbed onto sterile TGEA after 1,2,3,7, and 14 days of incubation of 25° C. The plates are incubated for one week at 25° C. Any growth observed on the agar surface during the incubation period is noted. […] The minimum inhibitory concentration (MIC), defined as the lowest concentration of BNM which prevented bacterial growth in the paint, is determined for the inventive solutions.

[7] = 504 h, Allens medium pH 7.5, three weeks, read-out: Minimum Inhibitory Concentration

O=[N+]([O-])CBr [Bromonitromethane, bromonitromethane]
MIC (Pseudomonas aeruginosa [1]; pulp slurry pH 8, 3 hr exposure): 1 to 5 µg/mL (≈ 7.15 to 35.7 µM)
MIC (Pseudomonas aeruginosa [1]; pulp slurry pH 8, 24 hr exposure): < 1 µg/mL
MIC (Aspergillus niger; synthetic cooling water pH 6, one week): < 1 µg/mL
MIC (Aspergillus niger; synthetic cooling water pH 8, one week): 1 to 5 µg/mL (≈ 7.15 to 35.7 µM)
growth inhibition (in words) (Aspergillus niger; acidified BNM solutions): effective for inhibiting the growth
CO2 off-gassing vs non-stabilized solutions [2]: substantially reduce off-gassing (CO2)
MIC ([3]; 168 h): < 0.1 µg/mL
MIC ([3]; 336 h, API broth, anaerobic, pH = 2.37, 2 weeks): 0.1 to 0.5 µg/mL (≈ 0.715 to 3.57 µM)
MIC ([3]; 504 h, API broth, anaerobic, pH = 2.37, 3 weeks): 0.1 to 0.5 µg/mL (≈ 0.715 to 3.57 µM)
growth inhibition (in words) ([3]; acidified BNM solutions): effective for inhibiting the growth
optimum pH for stability ([4]; acidified with strong acids): about 2.3
degradation rate ([4]; most stable solution, acidified with H2SO4 to pH 2.3, 72000 min): 0.4 % BNM per 50 days
hydrolysis (in words) ([4]; non-acidified solutions): hydrolyze rapidly
MIC (Chlorella; [7]): 0.5 to 1 µg/mL (≈ 3.57 to 7.15 µM)
growth inhibition (in words) (Chlorella; acidified BNM solutions): effective for inhibiting the growth
MIC (Chlamydomonas; [7]): 0.1 to 0.5 µg/mL (≈ 0.715 to 3.57 µM)
growth inhibition (in words) (Chlamydomonas; acidified BNM solutions): effective for inhibiting the growth
MIC (Pseudomonas aeruginosa [5]; 3 h, pH 7, read-out: Minimum Inhibitory Concentration): 0.6 to 3.2 µg/mL (≈ 4.29 to 22.9 µM)
MIC (Pseudomonas aeruginosa [5]; borate buffer pH 7, 24 hour exposure, ≥90% decrease, read-out: Minimum Inhibitory Concentration): 0.3 to 0.6 µg/mL (≈ 2.14 to 4.29 µM)
MIC (Pseudomonas aeruginosa [5]; borate buffer pH 8, 3 hour exposure, ≥90% decrease, read-out: Minimum Inhibitory Concentration): 0.6 to 3.2 µg/mL (≈ 4.29 to 22.9 µM)
MIC (Pseudomonas aeruginosa [5]; borate buffer pH 8, 24 hour exposure, ≥90% decrease, read-out: Minimum Inhibitory Concentration): 0.3 to 0.6 µg/mL (≈ 2.14 to 4.29 µM)
MIC (Anabeana; [7]): 0.5 to 1 µg/mL (≈ 3.57 to 7.15 µM)
growth inhibition (in words) (Anabeana; acidified BNM solutions, Anabeana): effective for inhibiting the growth
inhibition of organisms (in words) (all the organisms): inhibited all the organisms . . . but gave inconsistent results
MIC (Pseudomonas aeruginosa [6]; 24 h, 1 day incubation): 2 to 5 µg/mL (≈ 14.3 to 35.7 µM)
MIC (Pseudomonas aeruginosa [6]; 48 h, 2 days incubation): 2 to 5 µg/mL (≈ 14.3 to 35.7 µM)
MIC (Pseudomonas aeruginosa [6]; 72 h, 3 days incubation): 2 to 5 µg/mL (≈ 14.3 to 35.7 µM)
MIC (Pseudomonas aeruginosa [6]; 168 h, 7 days incubation): 2 to 5 µg/mL (≈ 14.3 to 35.7 µM)
MIC (Pseudomonas aeruginosa [6]; 336 h, 14 days incubation): 2 to 5 µg/mL (≈ 14.3 to 35.7 µM)
growth inhibition (in words) (Pseudomonas aeruginosa [6]; acidified BNM solutions): effective for inhibiting the growth
